According to publication PMC10385824, “Antiproliferative and Tubulin-Destabilising Effects of 3-(Prop-1-en-2-yl)azetidin-2-Ones and Related Compounds in MCF-7 and MDA-MB-231 Breast Cancer Cells” (Pharmaceuticals, 2023):
Where two headings read alike, the source gives them in different places.

Key:
[1] = system: IGROV1; assay: NCI-60 SRB screen, ovarian cancer; assay type: cell-based, human; conditions: IGROV1, 48 h
[2] = system: LOX IMVI; assay: NCI-60 SRB screen, melanoma; assay type: cell-based, human; conditions: 48 h
[3] = system: HCT-2998; assay: NCI-60 SRB screen, colon cancer; assay type: cell-based, human; conditions: 48 h
[4] = system: SK-MEL-28; assay: NCI-60 SRB screen, melanoma; assay type: cell-based, human; conditions: SK-MEL-28, 48 h
[5] = system: MCF-7; assay: cells; conditions: Homo sapiens
[6] = system: MDA-MB-435; assay: NCI-60 SRB screen, melanoma; assay type: cell-based, human; conditions: MDA-MB-435, 48 h
[7] = system: COLO 205; assay: NCI-60 SRB screen, colon cancer; assay type: cell-based, human; conditions: COLO 205, 48 h
[8] = system: SW-620; assay: NCI-60 SRB screen, colon cancer; assay type: cell-based, human; conditions: SW-620, 48 h
[9] = system: OVCAR-4; assay: NCI-60 SRB screen, ovarian cancer; assay type: cell-based, human; conditions: OVCAR-4, 48 h
[10] = system: U251; assay: NCI-60 SRB screen, CNS cancer; assay type: cell-based, human; conditions: U251, 48 h
[11] = system: CCRF-CEM; assay: NCI-60 SRB screen, leukemia; assay type: cell-based; conditions: Homo sapiens, five dose 0.01–100 µM, 48 h, read-out: GI50
[12] = system: KM12; assay: NCI-60 SRB screen, colon cancer; assay type: cell-based, human; conditions: KM12, 48 h
[13] = system: BT-549; assay: NCI-60 SRB screen, breast cancer; assay type: cell-based, human; conditions: BT-549, 48 h
[14] = system: 786-0; assay: NCI-60 SRB screen, renal cancer; assay type: cell-based, human; conditions: 786-0, 48 h
[15] = system: HOP-92; assay: NCI-60 SRB screen, non-small cell lung cancer; assay type: cell-based, human; conditions: HOP-92, 48 h
[16] = system: HOP-62; assay: NCI-60 SRB screen, non-small cell lung cancer; assay type: cell-based, human; conditions: HOP-62, 48 h
[17] = system: UO-31; assay: NCI-60 SRB screen, renal cancer; assay type: cell-based, human; conditions: UO-31, 48 h
[18] = system: A498; assay: NCI-60 SRB screen, renal cancer; assay type: cell-based, human; conditions: A498, 48 h
[19] = system: NCI-H552; assay: NCI-60 SRB screen, non-small cell lung cancer; assay type: cell-based, human; conditions: 48 h
[20] = system: HT29; assay: NCI-60 SRB screen, colon cancer; assay type: cell-based, human; conditions: HT29, 48 h
[21] = system: SN12C; assay: NCI-60 SRB screen, renal cancer; assay type: cell-based, human; conditions: 48 h
[22] = system: RPMI-8226; assay: NCI-60 SRB screen, leukemia; assay type: cell-based, human; conditions: RPMI-8226, 48 h
[23] = system: EKVX; assay: NCI-60 SRB screen, non-small cell lung cancer; assay type: cell-based, human; conditions: one dose 10 µM, 48 h
[24] = system: T-47D; assay: NCI-60 SRB screen, breast cancer; assay type: cell-based, human; conditions: T-47D, 48 h
[25] = system: NCI 60 human cancer cell line panel; assay: NCI 60 cell line screen (SRB), panel values
[26] = system: SK-OV-3; assay: NCI-60 SRB screen, ovarian cancer; assay type: cell-based, human; conditions: SK-OV-3, 48 h
[27] = system: HCT-15; assay: NCI-60 SRB screen, colon cancer; assay type: cell-based, human; conditions: HCT-15, 48 h
[28] = system: A549/ATCC; assay: NCI-60 SRB screen, non-small cell lung cancer; assay type: cell-based, human; conditions: 48 h
[29] = system: OVCAR-3; assay: NCI-60 SRB screen, ovarian cancer; assay type: cell-based, human; conditions: OVCAR-3, 48 h
[30] = system: RXF 393; assay: NCI-60 SRB screen, renal cancer; assay type: cell-based, human; conditions: RXF 393, 48 h
[31] = system: HS 578T; assay: NCI-60 SRB screen, breast cancer; assay type: cell-based; conditions: Homo sapiens; HS 578T; five dose 0.01–100 µM, 48 h; read-out: GI50
[32] = system: HCT-116; assay: NCI-60 SRB screen, colon cancer; assay type: cell-based, human; conditions: HCT-116, 48 h
[33] = Homo sapiens, five dose 0.01–100 µM, read-out: GI50

## C=C(C)C1C(=O)N(c2cc(OC)c(OC)c(OC)c2)C1c1ccc(OC)c(O)c1 (stereo not shown) [9q, 4-(3-Hydroxy-4-methoxyphenyl)-1-(3,4,5-trimethoxyphenyl)-3-(prop-1-en-2-yl)azetidin-2-one]
[1]; Homo sapiens, IGROV-1, five dose 0.01–100 µM, read-out: GI50
  GI50: 32.2 nM
[1]; one dose 10 µM
  % Growth: 29.32%
[2]; [33]
  GI50: < 10 nM
[2]; one dose 10 µM
  % Growth: 30.61%
[3]; HCC-2998, one dose 10 µM
  % Growth: -6.59%
[3]; Homo sapiens, HCT-2998, five dose 0.01–100 µM, read-out: GI50
  GI50: 30.1 nM
[4]; [33]
  GI50: 64300 nM
[4]; one dose 10 µM
  % Growth: 65.72%
[5]; MCF7
  IC50: < 10 nM
[5]; MCF7, 48 h
  GI50: < 10 nM
[5]; MCF7, read-out: LC50
  CC50: > 100000 nM
[6]; [33]
  GI50: < 10 nM
[6]; one dose 10 µM
  % Growth: -13.45%
[7]; one dose 10 µM
  % Growth: -27.00%
[7]; [33]
  GI50: 284 nM
[8]; [33]
  GI50: 33.4 nM
[8]; one dose 10 µM
  % Growth: 17.89%
[9]; [33]
  GI50: < 10 nM
[9]; one dose 10 µM
  % Growth: 25.51%
[10]; Homo sapiens, U-251, five dose 0.01–100 µM, read-out: GI50
  GI50: 30.5 nM
[10]; one dose 10 µM
  % Growth: 9.06%
[11]
  GI50: 19.2 nM
[12]; [33]
  GI50: < 10 nM
[12]; one dose 10 µM
  % Growth: -24.63%
[13]; one dose 10 µM
  % Growth: -9.94%
[13]; [33]
  GI50: 11 nM
[14]; one dose 10 µM
  % Growth: 4.28%
[14]; [33]
  GI50: 26.8 nM
[15]; one dose 10 µM
  % Growth: 16.15%
[15]; [33]
  GI50: 15.4 nM
[16]; one dose 10 µM
  % Growth: 22.22%
[16]; [33]
  GI50: 52.1 nM
[17]; [33]
  GI50: 87.8 nM
[17]; one dose 10 µM
  % Growth: 29.39%
[18]; one dose 10 µM
  % Growth: -13.19%
[18]; [33]
  GI50: < 10 nM
[19]; Homo sapiens, NCI-H552, five dose 0.01–100 µM, read-out: GI50
  GI50: < 10 nM
[19]; NCI-H522, one dose 10 µM
  % Growth: -43.45%
[20]; one dose 10 µM
  % Growth: 2.66%
[20]; Homo sapiens, HT-29, five dose 0.01–100 µM, read-out: GI50
  GI50: 187 nM
[21]; [33]
  GI50: 37 nM
[21]; one dose 10 µM
  % Growth: 31.39%
[22]; [33]
  GI50: 11.1 nM
[22]; one dose 10 µM
  % Growth: 11.06%
[23]
  % Growth: 68.88%
[24]; Homo sapiens, T47D, five dose 0.01–100 µM, read-out: GI50
  GI50: > 100000 nM
[24]; one dose 10 µM
  % Growth: 67.35%
[25]; Homo sapiens, 60 cell, 9 h, read-out: LC50
  CC50: > 100000 nM
[25]; Homo sapiens, 60 cell, breast cancer cell lines MCF-7, MDA-MB-231, HS 578T, BT-549, MDA-MB-468
  GI50: 10 to 16 nM
[25]; Homo sapiens, 60 cell, in 48 of the panel cell lines tested
  GI50: < 50 nM
[25]; Homo sapiens, 60 cell, read-out: Mean LC50
  CC50: 81300 nM
[25]; Homo sapiens, 60 cell, read-out: Mean TGI
  IC (TGI (total growth inhibition)): 32400 nM
[25]; all cell lines investigated except T-47D
  GI50 in words: sub-micromolar
[25]; for 34 of the cell lines tested
  TGI: > 100000 nM
[25]; one dose 10 µM, 48 h
  % Growth, Delta: 65.02%
  % Growth, Range: 126.47%
[25]; one dose 10 µM, 48 h, all cell lines
  % Growth, Mean: 13.02%
[26]; [33]
  GI50: 30.4 nM
[26]; one dose 10 µM
  % Growth: 8.15%
[27]; one dose 10 µM
  % Growth: 15.23%
[27]; [33]
  GI50: 29.9 nM
[28]; A549/A TCC, one dose 10 µM
  % Growth: 14.76%
[28]; Homo sapiens, A549/ATCC, five dose 0.01–100 µM, read-out: GI50
  GI50: 27.8 nM
[29]; [33]
  GI50: 20.7 nM
[29]; one dose 10 µM
  % Growth: -40.14%
[30]; [33]
  GI50: 42.8 nM
[30]; one dose 10 µM
  % Growth: 18.79%
[31]
  GI50: 10.6 nM
[32]; one dose 10 µM
  % Growth: -10.74%
[32]; [33]
  GI50: 14.9 nM
